Experimental data taken from ChEMBL document CHEMBL4325863, “Investigating alkyl nitrates as nitric oxide releasing precursors of multitarget acetylcholinesterase-monoamine oxidase B inhibitors” (Eur J Med Chem, 2019).

Columns and labels:
[1] = test system: SH-SY5Y; assay: Cytotoxicity against human SH-SY5Y cells assessed as reduction in cell viability after 24 hrs by MTT assay; assay type: cell-based
[2] = Apparent permeability from basolateral to apical side in MDCK2-MDR1 cells by UV-Visible spectrophotometric method; assay type: ADME, cell-based, Canis lupus familiaris; settings: dog, MDCK-MDR1
[3] = Efflux ratio of apparent permeability in MDCK2-MDR1 cells by UV-Visible spectrophotometric method; assay type: ADME, cell-based, Canis lupus familiaris; settings: dog, MDCK-MDR1
[4] = Drug metabolism in pH 7.4 PBS buffer assessed as 7-{[1-(3-Hydroxypropyl)piperidin-4-yl]methoxy}-3,4-dimethyl-2H-chromen-2-one formation at 100 uM up to 30 hrs in presence of glutathione by RP-HPLC method
[5] = molecular target: Acetylcholinesterase (Homo sapiens, UniProt P22303); assay: Inhibition of human recombinant AChE using acetylthiocholine iodide as substrate by Ellman's method
[6] = Half life in human serum at 100 uM by RP-HPLC method; assay type: ADME, cell-free
[7] = Drug metabolism in PBS buffer assessed as nitric oxide release at 150 uM in presence of cysteine by Griess reagent based UV-Visible spectrophotometric method; settings: TDE = time-dependent effect
[8] = molecular target: T1, Cholinesterase (Homo sapiens, UniProt P06276); assay: Inhibition of human serum BuChE at 10 uM using butyrylthiocholine iodide as substrate by Ellman's method relative to control
[9] = test system: SH-SY5Y; assay: Neuroprotection against rotenone/H2O2-induced cell death in human SH-SY5Y cells assessed as increase in cell viability preincubated for 24 hrs followed by rotenone/H2O2 addition measured after 24 hrs by MTT assay; assay type: functional, cell-based
[10] = Drug metabolism in pH 7.4 PBS buffer assessed as 7-{[1-(3-Hydroxypropyl)piperidin-4-yl]methoxy}-3,4-dimethyl-2H-chromen-2-one formation at 100 uM after 24 hrs by RP-HPLC method
[11] = Apparent permeability from apical to basolateral side in MDCK2-MDR1 cells by UV-Visible spectrophotometric method; assay type: ADME, cell-based, Canis lupus familiaris; settings: dog, MDCK-MDR1
[12] = molecular target: T2, Amine oxidase [flavin-containing] B (Homo sapiens, UniProt P27338); assay: Inhibition of recombinant human MAO-B expressed in baculovirus infected insect cell microsomes using kynuramine as substrate measured after 30 mins by fluorescence based assay
T2 sequence (P27338 whole entry): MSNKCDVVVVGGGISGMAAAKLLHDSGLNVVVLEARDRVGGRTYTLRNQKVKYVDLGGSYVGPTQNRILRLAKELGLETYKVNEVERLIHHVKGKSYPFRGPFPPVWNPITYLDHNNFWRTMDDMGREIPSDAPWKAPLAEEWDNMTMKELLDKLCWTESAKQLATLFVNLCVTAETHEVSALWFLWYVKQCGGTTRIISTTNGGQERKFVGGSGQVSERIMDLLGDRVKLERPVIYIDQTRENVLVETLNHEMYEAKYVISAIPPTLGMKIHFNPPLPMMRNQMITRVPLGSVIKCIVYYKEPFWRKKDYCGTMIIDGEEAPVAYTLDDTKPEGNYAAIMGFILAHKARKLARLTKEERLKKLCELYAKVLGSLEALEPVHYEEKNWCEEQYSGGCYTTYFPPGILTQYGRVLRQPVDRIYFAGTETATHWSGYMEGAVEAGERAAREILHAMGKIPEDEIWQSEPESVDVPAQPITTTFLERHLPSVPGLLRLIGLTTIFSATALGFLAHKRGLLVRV

[13] = molecular target: T3, Amine oxidase [flavin-containing] A (Homo sapiens, UniProt P21397); assay: Inhibition of recombinant human MAO-A expressed in baculovirus infected insect cell microsomes at 10 uM using kynuramine as substrate measured after 30 mins by fluorescence based assay relative to control; settings: 0.5 h
T3 sequence (P21397 whole entry): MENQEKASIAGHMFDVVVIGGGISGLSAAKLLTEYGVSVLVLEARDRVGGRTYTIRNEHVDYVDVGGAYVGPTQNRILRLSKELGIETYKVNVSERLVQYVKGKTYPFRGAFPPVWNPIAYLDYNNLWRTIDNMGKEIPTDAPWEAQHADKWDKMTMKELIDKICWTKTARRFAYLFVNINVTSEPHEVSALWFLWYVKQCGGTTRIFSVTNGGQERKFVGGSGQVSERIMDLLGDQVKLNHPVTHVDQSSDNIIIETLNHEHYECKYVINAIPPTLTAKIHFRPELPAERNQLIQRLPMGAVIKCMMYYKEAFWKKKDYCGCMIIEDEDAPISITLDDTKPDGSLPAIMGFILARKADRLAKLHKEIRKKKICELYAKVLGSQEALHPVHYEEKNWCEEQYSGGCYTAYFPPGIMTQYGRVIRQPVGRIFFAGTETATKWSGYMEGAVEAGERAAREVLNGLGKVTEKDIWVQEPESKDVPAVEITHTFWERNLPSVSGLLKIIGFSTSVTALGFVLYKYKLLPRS

[14] = Drug metabolism in pH 7.4 PBS buffer assessed as 7-{[1-(3-Hydroxypropyl)piperidin-4-yl]methoxy}-3,4-dimethyl-2H-chromen-2-one formation at 100 uM up to 30 hrs in presence of cysteine by RP-HPLC method
[15] = molecular target: Acetylcholinesterase (Electrophorus electricus, UniProt O42275); assay: Inhibition of electric eel AChE using acetylthiocholine iodide as substrate by Ellman's method
[16] = molecular target: Cholinesterase (Equus caballus) (UniProt P81908); assay: Inhibition of equine serum BuChE at 10 uM using butyrylthiocholine iodide as substrate by Ellman's method relative to control
[17] = molecular target: T3, Amine oxidase [flavin-containing] A; assay: Inhibition of recombinant human MAO-A expressed in baculovirus infected insect cell microsomes using kynuramine as substrate measured after 30 mins by fluorescence based assay
[18] = molecular target: Cholinesterase (Equus caballus, UniProt P81908); assay: Inhibition of equine serum BuChE using butyrylthiocholine iodide as substrate by Ellman's method
[19] = Drug metabolism in pH 7.4 PBS buffer assessed as 7-({1-[3-(Hydroxymethyl)benzyl]piperidin-4-yl}methoxy)-3,4-dimethyl-2H-chromen-2-one formation at 100 uM up to 30 hrs in presence of cysteine by RP-HPLC method
[20] = Drug metabolism in pH 7.4 PBS buffer assessed as 7-({1-[3-(Hydroxymethyl)benzyl]piperidin-4-yl}methoxy)-3,4-dimethyl-2H-chromen-2-one formation at 100 uM up to 30 hrs in presence of glutathione by RP-HPLC method
[21] = Drug metabolism in pH 7.4 PBS buffer assessed as 7-({1-[3-(Hydroxymethyl)benzyl]piperidin-4-yl}methoxy)-3,4-dimethyl-2H-chromen-2-one formation at 100 uM after 24 hrs by RP-HPLC method
[22] = molecular target: T2, Amine oxidase [flavin-containing] B; assay: Inhibition of recombinant human MAO-B expressed in baculovirus infected insect cell microsomes at 10 uM using kynuramine as substrate measured after 30 mins by fluorescence based assay relative to control; settings: 0.5 h
[23] = molecular target: T1, Cholinesterase; assay: Inhibition of human serum BuChE using butyrylthiocholine iodide as substrate by Ellman's method
[24] = Selectivity index, ratio of IC50 for equine serum BuChE to IC50 for electric eel AChE
[25] = species: Homo sapiens; assay: Selectivity index, ratio of IC50 for recombinant human MAO-A to IC50 for recombinant human MAO-B
[26] = molecular target: T2, Amine oxidase [flavin-containing] B; assay: Inhibition of recombinant human MAO-B expressed in baculovirus infected insect cell microsomes using kynuramine as substrate measured after 30 mins by spectrophotometric assay

Acetylcholinesterase (Homo sapiens, UniProt P22303), sequence (P22303 whole entry): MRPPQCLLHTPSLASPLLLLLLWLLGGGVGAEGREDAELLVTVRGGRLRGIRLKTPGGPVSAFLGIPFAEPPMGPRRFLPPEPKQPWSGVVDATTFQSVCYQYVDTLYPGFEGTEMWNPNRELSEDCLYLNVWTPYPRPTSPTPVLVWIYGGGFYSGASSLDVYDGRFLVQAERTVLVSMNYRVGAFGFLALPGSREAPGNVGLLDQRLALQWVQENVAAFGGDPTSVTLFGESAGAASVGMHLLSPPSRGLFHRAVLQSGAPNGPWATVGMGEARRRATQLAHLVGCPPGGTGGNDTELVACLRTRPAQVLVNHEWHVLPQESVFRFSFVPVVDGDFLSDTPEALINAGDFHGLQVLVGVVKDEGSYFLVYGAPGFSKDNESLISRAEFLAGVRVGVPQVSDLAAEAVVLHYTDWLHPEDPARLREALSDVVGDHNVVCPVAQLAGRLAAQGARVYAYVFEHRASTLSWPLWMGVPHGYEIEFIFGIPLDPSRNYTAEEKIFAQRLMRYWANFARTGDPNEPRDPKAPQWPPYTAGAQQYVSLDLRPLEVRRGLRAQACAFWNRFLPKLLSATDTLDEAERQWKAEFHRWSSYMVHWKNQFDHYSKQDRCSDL
Acetylcholinesterase (Electrophorus electricus, UniProt O42275), sequence (O42275 whole entry): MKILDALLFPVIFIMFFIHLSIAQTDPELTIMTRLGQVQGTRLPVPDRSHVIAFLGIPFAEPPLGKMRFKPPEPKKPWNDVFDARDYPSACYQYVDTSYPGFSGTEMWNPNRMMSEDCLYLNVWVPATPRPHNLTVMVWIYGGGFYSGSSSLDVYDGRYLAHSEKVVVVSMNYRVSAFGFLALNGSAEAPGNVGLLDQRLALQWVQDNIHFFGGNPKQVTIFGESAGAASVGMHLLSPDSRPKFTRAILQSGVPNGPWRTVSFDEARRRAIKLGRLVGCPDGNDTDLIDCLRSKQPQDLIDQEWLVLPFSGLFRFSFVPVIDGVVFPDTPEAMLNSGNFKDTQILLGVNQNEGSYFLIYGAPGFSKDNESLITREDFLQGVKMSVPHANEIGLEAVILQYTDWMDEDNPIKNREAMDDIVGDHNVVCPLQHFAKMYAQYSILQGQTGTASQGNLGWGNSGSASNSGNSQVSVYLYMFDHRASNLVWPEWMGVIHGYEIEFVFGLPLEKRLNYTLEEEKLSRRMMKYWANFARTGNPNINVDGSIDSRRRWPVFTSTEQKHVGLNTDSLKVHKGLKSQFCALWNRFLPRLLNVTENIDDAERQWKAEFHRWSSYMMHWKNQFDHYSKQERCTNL
T1 sequence (P06276 whole entry): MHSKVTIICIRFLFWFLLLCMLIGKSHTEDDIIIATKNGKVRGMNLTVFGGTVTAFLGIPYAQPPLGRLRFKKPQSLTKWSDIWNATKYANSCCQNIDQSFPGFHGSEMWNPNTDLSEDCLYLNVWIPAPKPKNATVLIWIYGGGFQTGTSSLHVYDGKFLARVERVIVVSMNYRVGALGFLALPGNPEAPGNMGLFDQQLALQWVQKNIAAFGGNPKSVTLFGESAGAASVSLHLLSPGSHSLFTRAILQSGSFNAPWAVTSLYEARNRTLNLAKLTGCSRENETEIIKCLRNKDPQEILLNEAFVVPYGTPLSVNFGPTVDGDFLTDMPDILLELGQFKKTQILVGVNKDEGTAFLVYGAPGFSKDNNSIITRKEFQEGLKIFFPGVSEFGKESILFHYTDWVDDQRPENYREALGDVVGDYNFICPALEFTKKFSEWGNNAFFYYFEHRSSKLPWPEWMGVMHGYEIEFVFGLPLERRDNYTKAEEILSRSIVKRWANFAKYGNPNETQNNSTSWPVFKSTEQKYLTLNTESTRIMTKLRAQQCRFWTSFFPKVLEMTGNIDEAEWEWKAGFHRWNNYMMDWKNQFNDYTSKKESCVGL
Cholinesterase (Equus caballus, UniProt P81908), sequence (P81908 whole entry): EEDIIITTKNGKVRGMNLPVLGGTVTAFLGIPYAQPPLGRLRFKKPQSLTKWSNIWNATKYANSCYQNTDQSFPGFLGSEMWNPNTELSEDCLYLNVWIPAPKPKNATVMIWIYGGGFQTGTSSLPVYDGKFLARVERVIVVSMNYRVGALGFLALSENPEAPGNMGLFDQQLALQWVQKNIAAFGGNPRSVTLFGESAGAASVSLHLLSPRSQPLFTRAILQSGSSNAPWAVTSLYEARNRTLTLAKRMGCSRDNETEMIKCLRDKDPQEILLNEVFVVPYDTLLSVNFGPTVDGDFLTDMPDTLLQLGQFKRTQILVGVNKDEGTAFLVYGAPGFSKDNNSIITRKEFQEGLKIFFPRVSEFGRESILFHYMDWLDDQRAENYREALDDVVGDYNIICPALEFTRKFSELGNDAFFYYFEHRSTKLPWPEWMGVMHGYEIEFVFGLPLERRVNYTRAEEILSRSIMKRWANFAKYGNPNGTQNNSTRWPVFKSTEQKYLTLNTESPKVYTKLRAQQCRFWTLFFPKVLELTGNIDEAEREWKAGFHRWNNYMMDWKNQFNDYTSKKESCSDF
Cholinesterase (Equus caballus), sequence (P81908 whole entry): as above

Compound | IC50 [12] [nM] | inhibition at 10 µM [13] [%] | IC50 [15] [nM] | inhibition [16] [%] | IC50 [17] [nM] | IC50 [18] [nM] | also measured
Cc1c(C)c2ccc(OCC3CCN(CCCO[N+](=O)[O-])CC3)cc2oc1=O | 250 | 36 |  |  |  |  | Activity [1]: > 100 µM; Papp B→A [2]: 15.7 ×10⁻⁶ cm/s; efflux ratio [3]: 3.17; Drug metabolism [4]: Metabolite not detected; IC50 [5]: 860 nM; half-life at 100 µM [6]: 23 h; Drug metabolism [7]: Tde; inhibition [8]: < 5%; Activity [9]: Dose-dependent effect; Drug metabolism [10]: Metabolite detected; Papp A→B [11]: 4.96 ×10⁻⁶ cm/s; Drug metabolism [14]: Metabolite not detected
Cc1c(C)c2ccc(OCC3CCCN(CCCO)C3)cc2oc1=O (stereo not drawn) | 1500 | 41 | 1800 | 26 |  |  | 
Cc1c(C)c2ccc(OCC3CCN(Cc4ccc(CCO)cc4)CC3)cc2oc1=O | 120 |  | 1200 | 41 | 1700 |  | 
CN(C)Cc1cccc(COc2ccc3c(CO)cc(=O)oc3c2)c1 | 54 | 42 | 5900 | 36 |  |  | 
Cc1c(C)c2ccc(OCC3CCN(CCCO)CC3)cc2oc1=O | 480 | 44 | 1300 | 30 |  |  | Activity [1]: > 100 µM; Papp B→A [2]: 14.9 ×10⁻⁶ cm/s; efflux ratio [3]: 1.5; IC50 [5]: 890 nM; inhibition [8]: < 5%; Activity [9]: Dose-dependent effect; Papp A→B [11]: 9.92 ×10⁻⁶ cm/s
Cc1c(C)c2ccc(OCC3CCN(CCCCO)CC3)cc2oc1=O | 3600 | 30 | 500 |  |  | 8300 | 
CN(C)Cc1cc(=O)oc2cc(OCc3cccc(CO)c3)ccc12 | 1100 | 21 | 4400 | 35 |  |  | 
Cc1cc(=O)oc2cc(OCC3CCN(Cc4ccc(CO)cc4)CC3)ccc12 | 600 |  | 1600 | 45 | 11000 |  | 
Cc1c(C)c2ccc(OCc3cccc(CN4CCC(CO)CC4)c3)cc2oc1=O | 320 | 23 | 2900 |  |  | 1000 | 
Cc1c(C)c2ccc(OCC3CCCN(Cc4ccc(CO)cc4)C3)cc2oc1=O (stereo not drawn) | 76 |  | 1200 |  | 1100 | 8600 | 
Cc1c(C)c2ccc(OCC3CCN(Cc4cccc(CO[N+](=O)[O-])c4)CC3)cc2oc1=O | 51 |  |  |  | 230 |  | Activity [1]: 36 µM; Papp B→A [2]: 16.5 ×10⁻⁶ cm/s; efflux ratio [3]: 1.33; IC50 [5]: 1300 nM; half-life at 100 µM [6]: 36.8 h; Drug metabolism [7]: Tde; Drug metabolism [19]: Metabolite detected; Activity [9]: Dose-dependent effect; Drug metabolism [20]: Metabolite detected; Papp A→B [11]: 12.4 ×10⁻⁶ cm/s; Drug metabolism [21]: 7%
Cc1cc(=O)oc2cc(OCC3CCN(Cc4cccc(CO)c4)CC3)ccc12 | 480 |  | 1600 |  | 3500 | 1900 | 
O=c1ccc2ccc(OCC3CCCN(CCCO)C3)cc2o1 (stereo not drawn) |  | 14 | 3500 |  |  | 1700 | inhibition at 10 µM [22]: 42%
Cc1c(C)c2ccc(OCC3CCN(Cc4cccc(OCCCO)c4)CC3)cc2oc1=O | 780 |  | 1800 |  | 550 | 180 | IC50 [23]: 740 nM; Ratio IC50 [24]: 0.1; Ratio IC50 [25]: 0.7; IC50 [5]: 840 nM
Cc1cc2ccc(OCC3CCN(Cc4cccc(CO)c4)CC3)cc2oc1=O | 1100 |  | 3200 |  | 3900 | 910 | 
Cc1c(C)c2ccc(OCC3CCN(Cc4ccc(CO)cc4)CC3)cc2oc1=O | 29 |  | 1000 |  | 1400 | 8800 | Ratio IC50 [25]: 48; IC50 [26]: 39 nM
Cc1c(C)c2ccc(OCCC3CCN(CCCO)CC3)cc2oc1=O |  | 35 | 720 | 39 |  |  | inhibition at 10 µM [22]: 31%
Cc1c(C)c2ccc(OCC3CCN(Cc4cccc(CO)c4)CC3)cc2oc1=O | 76 |  | 1000 |  | 1900 | 1300 | Activity [1]: 43 µM; Papp B→A [2]: 21.5 ×10⁻⁶ cm/s; efflux ratio [3]: 1.09; IC50 [5]: 1400 nM; Activity [9]: Dose-dependent effect; Papp A→B [11]: 19.8 ×10⁻⁶ cm/s
Cc1c(C)c2ccc(OCC3CCCN(Cc4cccc(CO)c4)C3)cc2oc1=O (stereo not drawn) | 110 |  | 900 |  | 2200 | 2700 | 
CN(C)Cc1ccc(COc2ccc3c(CO)cc(=O)oc3c2)cc1 | 78 | 20 | 4500 | 43 |  |  | IC50 [26]: 74 nM
Cc1cc2ccc(OCC3CCN(Cc4ccc(CO)cc4)CC3)cc2oc1=O | 3100 | 43 | 3000 |  |  | 8100 | 
CN(C)Cc1cc(=O)oc2cc(OCc3ccc(CO)cc3)ccc12 | 630 | 23 | 1300 |  |  | 11000 | IC50 [26]: 770 nM
